Test results: patent US20180100859A1, “SURROGATE FUNCTIONAL BIOMARKER FOR SOLID TUMOR CANCER” (EUTROPICS PHARMACEUTICALS, INC., priority 2015, published 2018)

Legend:
Assay type in all cases: cell-based
[1] = biological target: Bcl-xL/Bim heterodimer in SKBR3 breast cancer cells (Homo sapiens, UniProt Q07817); assay: Detection of Bcl-xL/Bim heterodimer with ANTI-HSBXB antibody in treated breast cancer cells, LI-COR imager
Protocol: ABT-263 is a pro-apoptotic compound that can be used on whole cells to disrupt BH3 mediated interactions. Disruption of these heterodimers in treated cells is detected as loss of ANTI-HSBXB signal. Here the cells were treated with various concentrations of ABT-263 for 10 hours at 37° C., then rinsed, fixed with 4% PFA, and incubated with ANTI-HSBXB (a Bcl-xL/Bim heterodimer-specific antibody). IRDye 800CW goat anti-mouse antibody was used to detect the heterodimer specific mouse monoclonal antibody, and IRDye 800CW Goat anti-rabbit antibody was used to detect a commercial Bcl-xL rabbit monoclonal antibody. Cell numbers were normalized by using CellTag 700 Stain.

Molm 13 cells = assay: Mitochondrial (BH3) profiling, Bcl-xL priming; details: Molm 13 leukemia cell line, FIG. 3
DHL-6 cells = assay: Mitochondrial (BH3) profiling, Bcl-xL priming; details: DHL-6 leukemia cell line, compared with Molm 13, FIG. 3
AHR cells = assay: Mitochondrial (BH3) profiling, Bcl-xL priming; details: AHR leukemia cell line, FIG. 3
From the text: The Bcl-xL/Bim heterodimer (HSBXB) can be detected by flow cytometry using a method for intracellular staining with the HSBXB antibody. Three leukemia cell lines, AHR, DHL6 and MOLM 13 were chosen based on their having differing amounts of Bcl-xL, Bim priming as determined by mitochondrial profiling. Consequently, the response to the Bcl-xL restricted, the Bcl-xL/Bim dimer “priming”, is known to be present at different amounts. A high signal mediated by Hrk-BH3 peptide indicates the existence of Bcl-xL/Bim heterodimer.
The HSBXB signal was assessed by flow cytometry and compared to the Hrk-BH3 peptide signal in the BH3 profiling assay. Here, AHR, DHL6 and MOLM13 cells were incubated on ice for 3 hours, and then washed and incubated with HSBXB antibody or Bcl-xL antibody at 10 ug/ml for 20 minutes, and then washed and stained with secondary Alexa488-conjugated goat anti-mouse. Signals were corrected to IgG-2A isotype or secondary alone control. The Hrk-BH3 signal in the mitochondrial profiling of the three cell lines was plotted against normalized HSBXB FACS signal.

Bcl-xL/Bim heterodimer in SKBR3 breast cancer cells, sequence (Q07817 whole entry, one chain of several): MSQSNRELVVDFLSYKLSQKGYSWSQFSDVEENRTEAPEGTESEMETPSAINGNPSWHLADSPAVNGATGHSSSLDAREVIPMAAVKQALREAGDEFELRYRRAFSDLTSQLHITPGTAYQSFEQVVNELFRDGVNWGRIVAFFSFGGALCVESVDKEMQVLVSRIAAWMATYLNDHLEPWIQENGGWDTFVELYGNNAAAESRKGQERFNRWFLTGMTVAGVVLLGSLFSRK

| Compound | time window where the disruption can be detected prior to caspase mediated membrane disruption [1] [h] | percent heterodimer specific signal (ANTI-HSBXB detection) ([1]; various concentrations, 10 hours at 37° C., FIG. 2) | degree of Bcl-xL priming relative to positive control (Molm 13 cells) | degree of Bcl-xL priming relative to positive control (DHL-6 cells) | degree of Bcl-xL priming relative to positive control (AHR cells) |
| --- | --- | --- | --- | --- | --- |
| CC1(C)CCC(c2ccc(Cl)cc2)=C(CN2CCN(c3ccc(C(=O)NS(=O)(=O)c4ccc(N[C@H](CCN5CCOCC5)CSc5ccccc5)c(S(=O)(=O)C(F)(F)F)c4)cc3)CC2)C1 [ABT-263] | 10 to 12 | decreasing the quantity of ANTI-HSBXB detection | – | – | – |
| Hrk-BH3: BH3 peptide HRK, SSAAQLTAARLKALGDELHQ, SEQ ID NO 8; Bcl-xL restricted (listed as Homo sapiens) | – | – | less than 5% | slightly higher | above 60% |
